Entries after “also recorded” stand apart in the source; their conditions may differ. Like-named read-outs stand apart in the source and are kept apart here.
Legend:
BCE cells = experiment: Proliferation and viability of cultured cells, 72 hr, cell count; type: cell-based, bovine; conditions: for IC50: Bos taurus, 72 h, BCE
Experimental: FIG. 18. Inhibition of proliferation and reduction in viability of BCE cells by GSAO. 15,000 (part A and B) or 50,000 (part C and D) BCE cells per well were seeded into gelatinised 24-well culture plates and allowed to attach for 24 hr (part A, B and D) or 72 hr (part C). The media was then replaced with DMEM containing 5% BCS and 0 to 1 mM GSAO or GSM and either 1 ng per mL FGF-2 (part A) or 10 ng per mL VEGF (part B). In part D, the media was replaced with DMEM containing 5% BCS and 1 ng per mL FGF-2 and either 10 μM GSAO or GSM. In part C, the media was replaced with DMEM containing 5% BCS and 0 to 1 mM GSAO or GSAA. Cells were cultured for 72 hr in parts A, B and C or for discrete times up to 48 hr in part D and then dispersed and counted. The dotted line in parts A, B and C indicate the cell number in control wells containing DMEM and 5% BCS which represented no to limited proliferation. The dotted line in part D represents no change in cell number over the 48 hr. The data points and errors represent the mean and range of duplicate wells.
(§1) BCE (Folkman et al. 1979), BAE, BxPC-3 (ATCC, Bethesda, Md.), HT1080 (Jiang et al., 1999), 3T3 (ATCC, Bethesda, Md.) and BVSM (Hogg et al., 1997) cells were harvested and cultured as indicated. Cells (0.5 mL of 30,000 or 100,000 cells per mL) were seeded into gelatinized 24-well culture plates (Corning Costar, Corning, N.Y.) in Dulbecco's Modified Eagle's Medium (DMEM, JHR Bioscience, Lenexa, Kans.) containing 10% fetal calf serum (FCS, Intergen Comp., Purchase, N.Y.) and 1% Glutamine Pen-Strep (GPS, Irvine Scientific, Santa Ana, Va.) and allowed to attach for 24 hr in 10% CO2 at 37° C. The media was then replaced with DMEM and 1% GPS containing 0 to 1 mM GSAO or GSAA and either 5% bovine calf serum (BCS, HyClone, Logan, Utah) and 1 ng per mL FGF-2 (Genzyme, Cambridge, Mass.) or 5% BCS and 10 ng per mL VEGF (Genzyme, Cambridge, Mass.) for BCE cells, 5% or 10% BCS for BAE cells, 5% BCS for BVSM cells, and 5% FCS for BxPC-3, HT1080 and 3T3 cells. Cells were cultured for 0 to 72 hr in 10% CO2 at 37° C. then dispersed in trypsin/EDTA (GibcoBRL, Granc Island, N.Y.), resuspended in Coulter balanced electrolyte solution and counted with a Z1 Coulter counter (Coulter Corp., Miami, Fla.). In all experiments there were two control wells containing DMEM with 1% GPS and either 5% BCS for BCE cells, 2% BCS for BAE and BVSM cells, or 2% FCS for BxPC-3, HT1080 and 3T3 cells. These wells represented no to limited proliferation.

BVSM cells = experiment: as above; type: cell-based, bovine
Experimental: FIG. 19. Effect of GSAO on Proliferation of non-endothelial cells. 15,000 BxPC-3 (part A), HT1080 (part B), 3T3 (part C) or BVSM (part D) cells per well were seeded into gelatinised 24-well culture plates and allowed to attach for 24 hr. The media was then replaced with DMEM containing 0 to 1 mM GSAO or GSAA and either 5% BCS (part D) or 5% FCS (parts A, B and C). Cells were cultured for 72 hr and then dispersed and counted. The dotted lines indicate the cell number in control wells containing DMEM and 2% BCS (part D) or 2% FCS (parts A, B and C) which represented no to limited proliferation. The data points and errors represent the mean and range of duplicate wells.
as §1

[1] = tested on: chick chorioallantoic membrane (CAM) angiogenesis; experiment: Chick chorioallantoic membrane (CAM) angiogenesis assay; type: in vivo; conditions: 5, 10 or 50 μg per pellet, 48 hr
Experimental: FIG. 22. Inhibition of CAM angiogenesis by GSAO. Fertilised 3 day-old white Leghorn eggs were cracked, the embryos placed in petri dishes and incubated for 3 days. Methylcellulose discs containing 5, 10 or 50 μg of either GSAA or GSAO were then applied to the CAM of individual embryos and incubated for 48 hr. The CAMs were scored for no obvious effect or inhibition of angiogenesis as defined by avascular zones. Photographs of CAM's after incubation with discs containing 10 μg of either GSM (top) or GSAO (bottom) is shown in the left hand panel. The dotted circle indicates the placement of the disc.
The chick CAM assay has been used for the detection and analysis of angiogenesis inhibition (Nguyen et al., 1994). Fertilised 3 day-old white Leghorn eggs (Spafas, Norwich, Conn.) were cracked, the embryos with intact yolks placed in 20×100 mm petri dishes and incubated for 3 days at 37° C. and 3% CO2 (Folkman, 1995). Methylcellulose (Fisher Scientific, Fair Lawn, N.J.) discs containing 5, 10 or 50 μg of either GSAA or GSAO were then applied to the CAM of individual embryos and incubated for 48 hr at 37° C. and 3% CO2. The discs were made by desiccation of GSAA or GSAO in 10 μl of 0.45% methycellulose on teflon rods. The CAMs were observed using a stereomicroscope and scored for no obvious effect or inhibition of CAM angiogenesis as defined by avascular zones. On some occasions CAM blood vessels were injected with India ink and photographed.

## N[C@@H](CCC(=O)N[C@@H](CSCC(=O)Nc1ccc([As](=O)(O)O)cc1)C(=O)NCC(=O)O)C(=O)O [GSAA, 4-(N-(S-glutathionylacetyl)amino)phenylarsonic acid, reference compound]
BCE cells; 0 to 1 mM
  effect on viability of BCE cells: no significant effect
BCE cells; highest concentration used, 1 mM
  effect on proliferation of BCE cells: only a marginal effect
BVSM cells; up to a concentration of 1 mM
  effect on proliferation or viability: no significant effect
[1]
  adverse effect on the wellbeing of the chick embryo: Neither GSAA nor GSAO had any apparent adverse effect
  inhibition of CAM angiogenesis (avascular zones): did not inhibit CAM angiogenesis
[1]; listed as GSM
  inhibition of CAM angiogenesis (avascular zones): no effects

## NC(CCC(=O)NC(CSCC(=O)Nc1ccc([As]=O)cc1)C(=O)NCC(=O)O)C(=O)O (stereo not drawn) [GSAO, 4-(N-(S-glutathionylacetyl)amino)-phenylarsenoxide]
BCE cells; 10 μM GSAO, after 8 hours
  decrease in viability of BCE cells over time: no decrease in viability
BCE cells; 5% BCS + 1 ng/mL FGF-2, 72 hr, read-out: Proliferation IC50
  IC50: ~0.1 µM
BCE cells; 5% BCS + 1 ng/mL FGF-2, >90% confluent, 72 hr, read-out: Viability IC50
  IC50: ~10 µM
BCE cells; 5% BCS + 10 ng/mL VEGF, 72 hr, read-out: Proliferation IC50
  IC50: ~0.05 µM
BCE cells; 5% BCS + 10 ng/mL VEGF, >90% confluent, 72 hr, read-out: Viability IC50
  IC50: ~3 µM
BVSM cells; 5% BCS, 72 hr
  Proliferation IC50: did not affect the proliferation; also recorded: No effect
BVSM cells; Bos taurus, 5% BCS, 72 hr
  IC50: ~40 µM
[1]
  adverse effect on the wellbeing of the chick embryo: Neither GSAA nor GSAO had any apparent adverse effect
  inhibition of CAM angiogenesis (avascular zones): inhibited angiogenesis in the CAM in a concentration-dependent manner
